# Source: ChEMBL document CHEMBL1201862, “PubChem BioAssay data set” (2004)
#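 Exposure lasted 48 hours, with cells grown in 96-well plates and compounds tested at five concentrations. The concentration for 50% growth inhibition is given as GI50.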 Active and inactive are the calls of the source. Cut-off read from the data, not from the text of the source: active = GI50 up to about 1.1 µM and inactive = higher.
# Assays:
# Experiment in all cases: NCI tumour cell line growth inhibition, 48 h
# SF-539 = test system: SF-539
# CCRF-CEM = test system: CCRF-CEM
# Malme-3M = test system: Malme-3M
# SF-268 = test system: SF-268
# COLO 205 = test system: COLO 205
# BT-549 = test system: BT-549
# SNB-19 = test system: SNB-19
# SN12C = test system: SN12C
# U-251 = test system: U-251
# HCT-116 = test system: HCT-116
# ACHN = test system: ACHN
# MDA-MB-231 = test system: MDA-MB-231
# HOP-62 = test system: HOP-62
# NCI/ADR-RES = test system: NCI/ADR-RES
# EKVX = test system: EKVX
# RXF 393 = test system: RXF 393
# SF-295 = test system: SF-295
# OVCAR-4 = test system: OVCAR-4
# OVCAR-3 = test system: OVCAR-3
# HL-60 = test system: HL-60
Structure (SMILES),GI50 (SF-539),GI50 (CCRF-CEM),GI50 (Malme-3M),GI50 (SF-268),GI50 (COLO 205),GI50 (BT-549),GI50 (SNB-19),GI50 (SN12C),GI50 (U-251),GI50 (HCT-116),GI50 (ACHN),GI50 (MDA-MB-231),GI50 (HOP-62),GI50 (NCI/ADR-RES),GI50 (EKVX),GI50 (RXF 393),GI50 (SF-295),GI50 (OVCAR-4),GI50 (OVCAR-3),GI50 (HL-60)
O=C(CCc1ccccc1)NCCc1ccc(O)c(O)c1,23.2 µM (inactive),1.42 µM (inactive),45.3 µM (inactive),33.8 µM (inactive),17 µM (inactive),7.01 µM (inactive),48.9 µM (inactive),36 µM (inactive),41.2 µM (inactive),27.7 µM (inactive),14.2 µM (inactive),24.8 µM (inactive),> 40.6 µM (inactive),28.4 µM (inactive),62.4 µM (inactive),> 100 µM (inactive),> 53.3 µM (inactive),10.4 µM (inactive),22.2 µM (inactive),3.43 µM (inactive)
CC(C)C[C@H](NC(=O)[C@H](Cc1ccccc1)NC(=O)CCc1ccccc1)B(O)O,< 0.01 µM (active),< 0.01 µM (active),< 0.01 µM (active),< 0.01 µM (active),< 0.01 µM (active),< 0.01 µM (active),< 0.01 µM (active),< 0.01 µM (active),< 0.01 µM (active),< 0.01 µM (active),< 0.01 µM (active),< 0.01 µM (active),< 0.01 µM (active),0.011 µM (active),< 0.01 µM (active),< 0.01 µM (active),< 0.01 µM (active),< 0.01 µM (active),< 0.01 µM (active),< 0.01 µM (active)
COc1c(O)cc2c(c1O)C(=O)C1=C(CCCC1)C2=O,15.6 µM (inactive),1.87 µM (inactive),25.8 µM (inactive),24.4 µM (inactive),19.1 µM (inactive),23 µM (inactive),31.5 µM (inactive),20.6 µM (inactive),21 µM (inactive),12.5 µM (inactive),23 µM (inactive),19 µM (inactive),33.4 µM (inactive),17.3 µM (inactive),22.6 µM (inactive),14.9 µM (inactive),25.2 µM (inactive),21.6 µM (inactive),20.3 µM (inactive),8.24 µM (inactive)
CN(C)/C=N\c1cccc2cnccc12,> 100 µM (inactive),> 100 µM (inactive),> 100 µM (inactive),> 100 µM (inactive),> 100 µM (inactive),> 100 µM (inactive),> 100 µM (inactive),> 100 µM (inactive),> 100 µM (inactive),> 100 µM (inactive),> 100 µM (inactive),> 100 µM (inactive),> 100 µM (inactive),> 100 µM (inactive),> 100 µM (inactive),> 100 µM (inactive),> 100 µM (inactive),> 100 µM (inactive),43.2 µM (inactive),> 100 µM (inactive)
C=C1OC2OC(C)C(NC(=O)OCC(Cl)(Cl)Cl)C(OC(C)=O)C2O1 (stereo unspecified),> 100 µM (inactive),> 100 µM (inactive),> 100 µM (inactive),> 100 µM (inactive),> 100 µM (inactive),> 100 µM (inactive),> 100 µM (inactive),> 100 µM (inactive),> 100 µM (inactive),> 100 µM (inactive),> 100 µM (inactive),> 100 µM (inactive),> 100 µM (inactive),> 100 µM (inactive),> 100 µM (inactive),> 100 µM (inactive),> 100 µM (inactive),> 100 µM (inactive),> 100 µM (inactive),> 100 µM (inactive)
COc1ccc(-c2oc3ccc(C)cc3c(=O)c2O)cc1,43.4 µM (inactive),> 100 µM (inactive),> 100 µM (inactive),45 µM (inactive),> 100 µM (inactive),> 100 µM (inactive),44.4 µM (inactive),> 100 µM (inactive),28.6 µM (inactive),52 µM (inactive),31.9 µM (inactive),71.4 µM (inactive),> 100 µM (inactive),35.4 µM (inactive),> 100 µM (inactive),> 100 µM (inactive),> 100 µM (inactive),57.7 µM (inactive),> 100 µM (inactive),58.7 µM (inactive)
COC(=O)/C=C(/C(=O)OC)c1cc2ccc3c([nH]c4ccccc43)c(C)c-2c1,11.4 µM (inactive),2.9 µM (inactive),5.21 µM (inactive),4.26 µM (inactive),1.75 µM (inactive),4.78 µM (inactive),9.29 µM (inactive),10.1 µM (inactive),3.85 µM (inactive),4.49 µM (inactive),6.61 µM (inactive),3.8 µM (inactive),12.1 µM (inactive),3.46 µM (inactive),3.76 µM (inactive),7.31 µM (inactive),4.12 µM (inactive),4.95 µM (inactive),3.4 µM (inactive),3.15 µM (inactive)
CN(C)CCNC(=O)c1ccc(NC(=O)c2nc([N+](=O)[O-])cn2C)cc1,> 100 µM (inactive),> 100 µM (inactive),> 100 µM (inactive),> 100 µM (inactive),> 100 µM (inactive),> 100 µM (inactive),,> 100 µM (inactive),> 100 µM (inactive),> 100 µM (inactive),> 100 µM (inactive),> 100 µM (inactive),> 100 µM (inactive),> 100 µM (inactive),,> 100 µM (inactive),> 100 µM (inactive),> 100 µM (inactive),> 100 µM (inactive),> 100 µM (inactive)
Nc1cc(Cl)ccc1SSc1ccc(Cl)cc1N,12 µM (inactive),3.07 µM (inactive),15.7 µM (inactive),14.7 µM (inactive),16.8 µM (inactive),9.91 µM (inactive),22.6 µM (inactive),11.9 µM (inactive),4.15 µM (inactive),9.16 µM (inactive),9.55 µM (inactive),5.6 µM (inactive),14.6 µM (inactive),7.94 µM (inactive),9.55 µM (inactive),10.3 µM (inactive),11 µM (inactive),13.6 µM (inactive),,16 µM (inactive)
Cc1ccc(NC(=O)c2cc(S(=O)(=O)N3CCNNC3=O)c(S)cc2Cl)cc1,> 100 µM (inactive),> 100 µM (inactive),> 100 µM (inactive),> 100 µM (inactive),> 100 µM (inactive),28.9 µM (inactive),> 100 µM (inactive),> 100 µM (inactive),> 100 µM (inactive),> 100 µM (inactive),> 100 µM (inactive),> 100 µM (inactive),,> 100 µM (inactive),> 100 µM (inactive),27.3 µM (inactive),> 100 µM (inactive),> 100 µM (inactive),> 100 µM (inactive),> 100 µM (inactive)
